The supplement of paper PMC6965134
± gives the standard deviation of the averaged measurements.

Experiment: TIMS collisional cross section (CCS, N2) of the lipid ion; higher = larger ion cross section
Conditions: ionization mode: negative, one isomer drawn
Procedure: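 Lipid extracts of human plasma (NIST SRM 1950), mouse liver or HeLa cells were separated by nanoflow C18 LC (30 min gradient) and analysed by TIMS-PASEF on a timsTOF Pro. Ion mobility was calibrated with the Agilent tuning mix (negative mode ions) and converted to collisional cross sections (Mason–Schamp, N2).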

[1] = sample type: Mouse Liver, ion (formula + adduct): [C42H76NO8P+AcO] 1-
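Note: lipids from MTBE extraction, five replicate injections per sample, 100 ms TIMS ramp spanning 0.6–1.95 Vs/cm², lipid identity assigned from PASEF MS/MS spectra.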

SMILES: CCCCCCCCCCCCCC(=O)OC[C@H](COP(=O)([O-])OCC[N+](C)(C)C)OC(=O)CCCCCCCCCCCCC [PC 14:0_14:0]
- TIMS collisional cross section (sample type: Human plasma, ion (formula + adduct): [C36H72NO8P+HCOO] 1-): 277.1 Å²

SMILES: CCCCCCCCCCCCCCCC(=O)O[C@H](COC(=O)CCCCCCCCCCCCC)COP(=O)([O-])OCC[N+](C)(C)C [PC 14:0_16:0@]
- TIMS collisional cross section (sample type: Mouse Liver, ion (formula + adduct): [C38H76NO8P+HCOO] 1-): 283.8 Å²

SMILES: CCCCCCCCCCCCCCCC(=O)O[C@H](COC(=O)CCCCCCCCCCCCC)COP(=O)([O-])OCC[N+](C)(C)C [PC 14:0_16:0]
- TIMS collisional cross section (sample type: Human plasma, ion (formula + adduct): [C38H76NO8P+HCOO] 1-): 282.7 Å²

SMILES: CCCCCC/C=C\CCCCCCCC(=O)O[C@H](COC(=O)CCCCCCCCCCCCC)COP(=O)([O-])OCC[N+](C)(C)C [PC 14:0_16:1]
- TIMS collisional cross section (sample type: Human plasma, ion (formula + adduct): [C38H74NO8P+HCOO] 1-): 280.9 Å²

SMILES: CCCCCCCCCCCCCCCCCC(=O)O[C@H](COC(=O)CCCCCCCCCCCCC)COP(=O)([O-])OCC[N+](C)(C)C [PC 14:0_18:0]
- TIMS collisional cross section (sample type: Human plasma, ion (formula + adduct): [C40H80NO8P+HCOO] 1-): 287.7 Å²

SMILES: CCCCCC/C=C\CCCCCCCCCC(=O)O[C@H](COC(=O)CCCCCCCCCCCCC)COP(=O)([O-])OCC[N+](C)(C)C [PC 14:0_18:1]
- TIMS collisional cross section (sample type: Mouse Liver, ion (formula + adduct): [C40H78NO8P+HCOO] 1-): 286 Å²

SMILES: CC/C=C\C/C=C\C/C=C\CCCCCCCC(=O)O[C@H](COC(=O)CCCCCCCCCCCCC)COP(=O)([O-])OCC[N+](C)(C)C [PC 14:0_18:3]
- TIMS collisional cross section (sample type: Mouse Liver, ion (formula + adduct): [C40H74NO8P+HCOO] 1-): 284 Å²

SMILES: CCCCC/C=C\C/C=C\C/C=C\C/C=C\CCCC(=O)O[C@H](COC(=O)CCCCCCCCCCCCC)COP(=O)([O-])OCC[N+](C)(C)C [PC 14:0_20:4@]
- TIMS collisional cross section [1]: 288.1 Å²

SMILES: CCCCC/C=C\C/C=C\C/C=C\C/C=C\CCCC(=O)O[C@H](COC(=O)CCCCCCCCCCCCC)COP(=O)([O-])OCC[N+](C)(C)C [PC 14:0_20:4]
- TIMS collisional cross section (sample type: Human plasma, ion (formula + adduct): [C42H76NO8P+HCOO] 1-): 288.2 Å²
- TIMS collisional cross section [1]: 290.4 Å²

SMILES: CCCC/C=C\CCCCCCCC(=O)OC[C@H](COP(=O)([O-])OCC[N+](C)(C)C)OC(=O)CCC/C=C\C/C=C\C/C=C\C/C=C\CCCCC [PC 14:1@_20:4]
- TIMS collisional cross section (sample type: Human plasma, ion (formula + adduct): [C42H74NO8P-CH3] 1-): 268.8 Å²

SMILES: CC/C=C\C/C=C\C/C=C\C/C=C\C/C=C\CCCC(=O)O[C@H](COC(=O)CCCCCCC/C=C\CCCC)COP(=O)([O-])OCC[N+](C)(C)C [PC 14:1@_20:5]
- TIMS collisional cross section (sample type: Mouse Liver, ion (formula + adduct): [C42H72NO8P-H] 1-): 269.9 Å²

SMILES: CCCC/C=C\CCCCCCCC(=O)OC[C@H](COP(=O)([O-])OCC[N+](C)(C)C)OC(=O)CCCCCCCCCCCCCCC [PC 14:1_16:0]
- TIMS collisional cross section (sample type: Mouse Liver, ion (formula + adduct): [C38H74NO8P+Cl] 1-): 268.8 Å²

SMILES: CCCC/C=C\CCCCCCCC(=O)OC[C@H](COP(=O)([O-])OCC[N+](C)(C)C)OC(=O)CCCCCCC/C=C\CCCCCC [PC 14:1_16:1@]
- TIMS collisional cross section (sample type: Human plasma, ion (formula + adduct): [C38H72NO8P+HCOO] 1-): 278.6 Å²

SMILES: CCCCCC/C=C\CCCCCCCC(=O)O[C@H](COC(=O)CCCCCCCCCCCCCC)COP(=O)([O-])OCC[N+](C)(C)C [PC 15:0@_16:1]
- TIMS collisional cross section (sample type: Mouse Liver, ion (formula + adduct): [C39H76NO8P+AcO] 1-): 285.4 Å²

SMILES: CCCCC/C=C\C/C=C\C/C=C\CCCCC(=O)O[C@H](COC(=O)CCCCCCCCCCCCCC)COP(=O)([O-])OCC[N+](C)(C)C [PC 15:0@_18:3]
- TIMS collisional cross section (sample type: Human plasma, ion (formula + adduct): [C41H76NO8P+HCOO] 1-): 287.1 Å²

SMILES: CCCCC/C=C\C/C=C\C/C=C\C/C=C\CCCC(=O)O[C@H](COC(=O)CCCCCCCCCCCCCC)COP(=O)([O-])OCC[N+](C)(C)C [PC 15:0@_20:4]
- TIMS collisional cross section (sample type: Human plasma, ion (formula + adduct): [C43H78NO8P+OAcO] 1-): 295.5 Å²
- TIMS collisional cross section (sample type: Mouse Liver, ion (formula + adduct): [C43H78NO8P-H] 1-): 285.5 ± 12 Å²

SMILES: CC/C=C\C/C=C\C/C=C\C/C=C\C/C=C\C/C=C\CCC(=O)O[C@H](COC(=O)CCCCCCCCCCCCCC)COP(=O)([O-])OCC[N+](C)(C)C [PC 15:0@_22:6]
- TIMS collisional cross section (sample type: Mouse Liver, ion (formula + adduct): [C45H78NO8P-H] 1-): 280.7 Å²

SMILES: CCCCCCCCCCCCCCCC(=O)O[C@H](COC(=O)CCCCCCCCCCCCCC)COP(=O)([O-])OCC[N+](C)(C)C [PC 15:0_16:0@]
- TIMS collisional cross section (sample type: Human plasma, ion (formula + adduct): [C39H78NO8P+HCOO] 1-): 284.9 Å²
- TIMS collisional cross section (sample type: Human plasma, ion (formula + adduct): [C39H78NO8P+OAcO] 1-): 290.8 Å²

SMILES: CCCCCCCCCCCCCCCC(=O)O[C@H](COC(=O)CCCCCCCCCCCCCC)COP(=O)([O-])OCC[N+](C)(C)C [PC 15:0_16:0]
- TIMS collisional cross section (sample type: Human plasma, ion (formula + adduct): [C39H78NO8P-H] 1-): 269.8 Å²

SMILES: CCCCCCCCCCCCCCCCCC(=O)O[C@H](COC(=O)CCCCCCCCCCCCCC)COP(=O)([O-])OCC[N+](C)(C)C [PC 15:0_18:0@]
- TIMS collisional cross section (sample type: Human plasma, ion (formula + adduct): [C41H82NO8P+HCOO] 1-): 291.1 Å²

SMILES: CCCCCC/C=C\CCCCCCCCCC(=O)O[C@H](COC(=O)CCCCCCCCCCCCCC)COP(=O)([O-])OCC[N+](C)(C)C [PC 15:0_18:1]
- TIMS collisional cross section (sample type: Human plasma, ion (formula + adduct): [C41H80NO8P+HCOO] 1-): 288.8 Å²

SMILES: CCCCC/C=C\C/C=C\CCCCCCCC(=O)O[C@H](COC(=O)CCCCCCCCCCCCCC)COP(=O)([O-])OCC[N+](C)(C)C [PC 15:0_18:2]
- TIMS collisional cross section (sample type: Human plasma, ion (formula + adduct): [C41H78NO8P+HCOO] 1-): 288.2 Å²
- TIMS collisional cross section (sample type: Mouse Liver, ion (formula + adduct): [C41H78NO8P+HCOO] 1-): 287.1 Å²

SMILES: CCCCC/C=C\C/C=C\C/C=C\C/C=C\CCCC(=O)O[C@H](COC(=O)CCCCCCCCCCCCCC)COP(=O)([O-])OCC[N+](C)(C)C [PC 15:0_20:4]
- TIMS collisional cross section (sample type: Human plasma, ion (formula + adduct): [C43H78NO8P+HCOO] 1-): 291 Å²

SMILES: CC/C=C\C/C=C\C/C=C\C/C=C\C/C=C\C/C=C\CCC(=O)O[C@H](COC(=O)CCCCCCCCCCCCCC)COP(=O)([O-])OCC[N+](C)(C)C [PC 15:0_22:6]
- TIMS collisional cross section (sample type: Human plasma, ion (formula + adduct): [C45H78NO8P+HCOO] 1-): 294.4 Å²
- TIMS collisional cross section (sample type: Mouse Liver, ion (formula + adduct): [C45H78NO8P+HCOO] 1-): 294.4 Å²

SMILES: CCCCC/C=C\CCCCCCCC(=O)OC[C@H](COP(=O)([O-])OCC[N+](C)(C)C)OC(=O)CCCCCCCCC/C=C\CCCCCCCC [PC 15:1@_20:1]
- TIMS collisional cross section (sample type: Mouse Liver, ion (formula + adduct): [C43H82NO8P-H] 1-): 279.1 Å²

SMILES: CCCCC/C=C\C/C=C\C/C=C\C/C=C\CCCC(=O)O[C@H](COC(=O)CCCCCCC/C=C\CCCCC)COP(=O)([O-])OCC[N+](C)(C)C [PC 15:1@_20:4]
- TIMS collisional cross section (sample type: Human plasma, ion (formula + adduct): [C43H76NO8P-H] 1-): 275 Å²
- TIMS collisional cross section (sample type: Mouse Liver, ion (formula + adduct): [C43H76NO8P-H] 1-): 275.6 Å²

SMILES: CCCCC/C=C\C/C=C\CCCCCCCC(=O)O[C@H](COC(=O)CCCCCCC/C=C\CCCCC)COP(=O)([O-])OCC[N+](C)(C)C [PC 15:1_18:2]
- TIMS collisional cross section (sample type: Mouse Liver, ion (formula + adduct): [C41H76NO8P+HCOO] 1-): 286.5 Å²

SMILES: CCCCC/C=C\C/C=C\C/C=C\CCCCC(=O)O[C@H](COC(=O)CCCCCCCCCCCCCCC)COP(=O)([O-])OCC[N+](C)(C)C [PC 16:0@_18:3]
- TIMS collisional cross section (sample type: Human plasma, ion (formula + adduct): [C42H78NO8P+AcO] 1-): 295.1 Å²

SMILES: CC/C=C\C/C=C\C/C=C\C/C=C\CCCCC(=O)O[C@H](COC(=O)CCCCCCCCCCCCCCC)COP(=O)([O-])OCC[N+](C)(C)C [PC 16:0@_18:4]
- TIMS collisional cross section (sample type: Mouse Liver, ion (formula + adduct): [C42H76NO8P+HCOO] 1-): 287.6 Å²

SMILES: CCCCC/C=C\C/C=C\C/C=C\C/C=C\C/C=C\CCC(=O)O[C@H](COC(=O)CCCCCCCCCCCCCCC)COP(=O)([O-])OCC[N+](C)(C)C [PC 16:0@_22:5]
- TIMS collisional cross section (sample type: Human plasma, ion (formula + adduct): [C46H82NO8P-CH3] 1-): 282.7 ± 0.42 Å²
- TIMS collisional cross section (sample type: Mouse Liver, ion (formula + adduct): [C46H82NO8P-CH3] 1-): 282.4 Å²

SMILES: CC/C=C\C/C=C\C/C=C\C/C=C\C/C=C\C/C=C\CCC(=O)O[C@H](COC(=O)CCCCCCCCCCCCCCC)COP(=O)([O-])OCC[N+](C)(C)C [PC 16:0@_22:6]
- TIMS collisional cross section (sample type: Mouse Liver, ion (formula + adduct): [C46H80NO8P-CH3] 1-): 281.3 Å²

SMILES: C=CC(=O)O[C@H](COC(=O)CCCCCCCCCCCCCCC)COP(=O)([O-])OCC[N+](C)(C)C [PC 16:0_3:1@]
- TIMS collisional cross section (sample type: Human plasma, ion (formula + adduct): [C27H52NO8P+OAcO] 1-): 252.2 Å²
- TIMS collisional cross section (sample type: Mouse Liver, ion (formula + adduct): [C27H52NO8P+AcO] 1-): 244.7 Å²
